Reference: PMC3144881, “Computational Reverse-Engineering of a Spider-Venom Derived Peptide Active Against Plasmodium falciparum SUB1” (PLoS ONE, 2011)

Tests used:
[1] = test system: P. falciparum 3D7 segmented schizonts (egress/invasion); details: cited from earlier work
Protocol: A synchronised culture composed of segmented schizontes of P. falciparum (3D7 clone) at 0.5% parasitemia and 1% hematocrit is performed in a 24 wells plate. An aliquot corresponding to 10% of the starting culture (T ) is diluted in a solution at 0.04% of glutaraldehyde in PBS (Dulbecco) and store at 4 C for further flow cytometry analysis.

[2] = test system: P. falciparum 3D7 segmented schizonts (egress/invasion); test: Merozoite egress/invasion assay, synchronized schizonts, flow cytometry (YOYO-1); assay type: cell-based, Plasmodium falciparum; details: 10 μM E64, 12 hr, 0.5% segmented schizonts, vs mock control
[3] = test system: P. falciparum clone 3D7 (asynchronous culture); details: read-out: EC50 on the asynchronous culture of P. falciparum intra-erythrocytic cycle; ± 6 (SEM); clone 3D7, 0,5% parasitemia, 1% hematocrit, 48 hours contact, 10 μM hypoxanthine, 37 °C
Protocol: Asexual cultures of reference clone 3D7 obtained from MR4 (www.MR4.org) was maintained in continuous cultures following the method of Trager an Jensen, except that the medium was composed of RPMI 1640 medium supplemented with 10% decomplemented human serum (AB+), hypoxanthine 100 [drawing 51] M, gentamycin […]. Parasites were incubated at 37 [drawing 52] C in an atmosphere composed of 5%O [drawing 53] , 5%CO [drawing 54] and 90%N [drawing 55] . […] EC [drawing 57] have been determined following nonlinear regression analysis using HN-NonLin V1.1 software (http://malaria.farch.net).

P. falciparum = details: intra-erythrocytic cycle; cited from earlier work
fungi, bacteria = details: cited from earlier work
Text: (§1) In addition to therapies based on small molecules such as chloroquine, artemisinins, quinine and atovaquone, the development of new classes of molecules based on proteins or peptidomimetics [8] is an active field of research. […] Choi et al. have isolated from the ven ...

human epithelial cells = details: cited from earlier work
Text: as §1

recombinant PfSUB1 [4] = biological target: T1, recombinant PfSUB1 (Plasmodium falciparum, UniProt Q8I0V0); test: Enzymatic test: inhibition of recombinant PfSUB1, Dabsyl/Edans peptide substrate; assay type: biochemical; details: translated from the measured PfSUB1 Ki
T1 construct: Culture supernatant containing the secreted and active PvSUB1 or PfSUB1 recombinant enzymes was harvested; 6xHis (C); made in house; host or cells: Sf9 insect cells (baculovirus)

[5] = biological target: T2, recombinant Plasmodium vivax SUB1 (PvSUB1) (Plasmodium vivax, UniProt E6Y8B9); set-up: method as in Bouillon et Giganti et al, in preparation; details: ± 1,7; substrate cleaved between the two aspartates, Dabsyl/Edans; ref Bouillon et Giganti et al, in preparation; read-out: apparent Km of PvSUB1 for its substrate; cited from earlier work
T2 construct: Culture supernatant containing the secreted and active PvSUB1 or PfSUB1 recombinant enzymes was harvested; 6xHis (C); made in house; host or cells: Sf9 insect cells (baculovirus)

recombinant PfSUB1 [6] = biological target: T1, recombinant PfSUB1; set-up: method as in 2 sources, ref 22 = [22]; PMID 12764150; doi:10.1074/jbc.M303827200; 22 Jean L Hackett F Martin SR Blackman MJ 2003 Functional characterization of the propeptide of Plasmodium falciparum subtilisin-like protease-1. J Biol Chem 278 28572 9 12764150 10.1074/jbc.M30382720 ||| ref Bouillon et Giganti et al, in preparation; details: ± 3,4; substrate cleaved between D and N, Dabsyl/Edans; ref Bouillon et Giganti et al, in preparation; read-out: apparent Km of PfSUB1 for its substrate; cited from earlier work
[7] = biological target: recombinant Plasmodium vivax SUB1 (PvSUB1), purified and active (Plasmodium vivax) (UniProt E6Y8B9); test: enzyme inhibition assay (Dabsyl/Edans quenched fluorescent peptide substrate); 13 ng purified PvSUB1 or PfSUB1, 25 uM substrate, 20 mM Tris pH 7.5, 25 mM CaCl2, 37 C; inhibitor at ten concentrations from 1 mM to 2 uM; fluorescence read every 3 min for 90 min; N = 3
[8] = biological target: recombinant Plasmodium falciparum subtilisin-like serine protease SUB1 (PfSUB1), purified and active (Plasmodium falciparum) (UniProt Q8I0V0); test: as above
[9] = biological target: recombinant Plasmodium falciparum subtilisin-like serine protease SUB1 (PfSUB1), purified and active (Plasmodium falciparum) (UniProt Q8I0V0)
[10] = biological target: recombinant Plasmodium falciparum subtilisin-like serine protease SUB1 (PfSUB1), purified and active (Plasmodium falciparum) (UniProt Q8I0V0); remark: listed apart in the source

CC(C)C[C@H](NC(=O)[C@H]1O[C@@H]1C(=O)O)C(=O)NCCCCN=C(N)N (relative stereo) [E64, trans-Epoxysuccinyl-L-leucylamido(4-guanidino)butane]
block of egress of P. falciparum merozoites in vitro [1]: known to block the egress of P. falciparum merozoites in vitro | inhibition of newly formed trophozoites and equivalent segmented schizont accumulation [2]: 91.6%

CC[C@H](C)[C@@H]1NC(=O)CNC(=O)[C@@H](NC(=O)[C@H](C)N)CSSC[C@@H]2NC(=O)[C@@H]3CSSC[C@@H](C(=O)N[C@@H](CC(C)C)C(=O)N[C@H](C(=O)N[C@@H](CCC(N)=O)C(=O)N[C@H](C(=O)N[C@@H](CO)C(=O)O)C(C)C)C(C)C)NC(=O)[C@H](CCCCN)NC(=O)CNC(=O)[C@H](Cc4ccc(O)cc4)NC(=O)[C@H](CCCNC(=N)N)NC(=O)[C@H](CSSC[C@H](NC(=O)[C@H](CC(N)=O)NC(=O)[C@H](CC(=O)O)NC(=O)[C@H](Cc4c[nH]cn4)NC(=O)[C@H](CC(C)C)NC1=O)C(=O)N[C@@H](C(C)C)C(=O)N[C@@H](Cc1ccc(O)cc1)C(=O)N[C@@H](C(C)C)C(=O)N1CCC[C@H]1C(=O)N[C@@H](C)C(=O)N[C@@H](CCC(N)=O)C(=O)N[C@@H](CC(N)=O)C(=O)N1CCC[C@H]1C(=O)N3)NC(=O)[C@H](CCC(N)=O)NC(=O)[C@H](CC(C)C)NC(=O)CNC(=O)[C@H](CCCNC(=N)N)NC2=O [PcFK1]
EC50 [3]: 116 µM | IC50, growth of P. falciparum (P. falciparum): low micromolar range | antifungal or antibacterial activity (fungi, bacteria): no antifungal or antibacterial activity | effect on growth or viability of human epithelial cells (human epithelial cells): nor do they affect the growth or viability of human epithelial cells | free energy of binding translated from Ki value (recombinant PfSUB1 [4]): -6.37 kcal/mol

KLVGADDVSLA [PvSUB1 peptide substrate with fluorophore/quencher Dabsyl/Edans at each edge]
Km [5]: 19.7 µM

KLVSADNIDIS [PfSUB1 peptide substrate with fluorophore/quencher Dabsyl/Edans at each edge]
Km (recombinant PfSUB1 [6]): 30.2 µM

Psalmopeotoxin I (PcFK1), chemically synthesized with an extra serine at the C-term (from UniProt P0C201 52-86) (peptide)
Ki [7]: 36.3 µM | Ki [8]: 29.3 µM | inhibition of newly formed trophozoites (merozoite egress/invasion, synchronized P. falciparum culture, 12 hr, flow cytometry) at 200 uM PcFK1, compared to the mock control [9]: 56.2% | EC50 of PcFK1 on the asynchronous culture of P. falciparum intra-erythrocytic cycle (clone 3D7, 48 hours with the drug) [10]: 116 µM
